System: Staphylococcus aureus MRSA (ATCC BAA-44)
Assay: microbe, parasite or virus in culture
Design: species or system Staphylococcus aureus ATCC BAA-44
Settings: ATCCBAA44|MRSA, 18 h, read-out: %viability

SMILES: CC1(C)S[C@@H]2[C@H](NC(=O)[C@H](N)c3ccc(O)cc3)C(=O)N2[C@H]1C(=O)O [Amoxicillin]
- viability at 50 µM: 85%
